Entries after “also recorded” stand apart in the source; their conditions may differ.
Columns and labels:
[1] = test system: differentiated N1E-115 cells; test: Live imaging of EB3 comet-like structures (MT dynamics); type: cell-based, mouse
Procedure: Cell culture—Mouse neuroblastoma NIE-115 cells were maintained in Dulbecco's modified Eagle's medium, 10% fetal bovine serum, 2 mM glutamine and 100 U ml—1 penicillin, […] ml—1 streptomycin (Biological Industries, Beit Haemek, Israel). The cells were incubated in 95% air/5% CO2 in a humidified incubator at 37° C.
Cell differentiation and co-transfection of overexpression plasmids—Cultured NIE-115 cells were plated on 35 mm dishes (81156, 60μ-Dish, Ibidi, Martinsried, Germany) at a concentration of 1.25×10^4 cells per dish and then were differentiated with reduced fetal bovine serum (2%) and DMSO (1.25%) containing medium for 5 days before transfection. 48 hrs before experiments N1E-115 cells were co-transfected with 1 μg EB3-RFP or mCherry-Tau (3R) plasmid with or without 2 μg of plasmids, coding to GFP conjugated to full-length human ADNP, or ADNP carried mutations. 1:3 ratios between total amount of transfected DNA and transfection reagent were used according to manufacture guidance (Lipofectamine2000, Thermo Fisher Scientific, Waltham, MA, USA) in all subsequent experiments.
Live Imaging—48 hrs after transfection, differentiated NIE-115 cells (expressing EB3-RFP with or without GFP-conjugated to full-length ADNP or mutated ADNP) were incubated at 37° C. with a 5% CO2/95% air mixture in a thermostatic chamber placed on the stage of a Leica TCS SP5 confocal microscope (objective 100× (PL Apo) oil immersion, NA 1.4). Time-lapse images were automatically captured 3 sec during 1 min, using the Leica LAS AF software. After imaging all samples were also treated with NAP (SEQ ID NO: 2) or SKIP (SEQ ID NO: 21) in final concentrations of 10^−12 M, and after 4 hrs time-lapse imaging was done again under the same conditions. Data was collected and analyzed by Imaris software.
To evaluate the effect of ADNP truncated proteins on MT dynamics time-lapse imaging of EB3 comet-like structures formed by RFP-tagged EB3 proteins that bind to MT plus-ends was performed. Two parameters of EB3 activity were used to assess MT dynamics—track length and track speed of EB3 comets, which reflect the length of freshly growing MTs and the speed of MT assembly, respectively. Furthermore, the present inventors aimed to determine whether NAP (10^−12 M for 4 hrs) could prevent the deleterious effect of ADNP mutations.

BTBR mouse = test: Social recognition test; type: in vivo; conditions: BTBR idiopathic autism mouse, FIG. 14
Tyr mice [2] = test: Ultrasonic vocalizations (USV) and syntax, DeepSqueak; type: in vivo, mouse; design: key to NAP efficacy: speech impediments: corrections by NAP treatment (+)
Procedure: USV: On P8, each pup was separated from the dam and placed in an empty cage for 6 minutes, in a quiet room and was recorded using the M500-384 USB Ultrasound Microphone (Petterson, Sweden). Pups were distinguished from one another using the tattoos listed above. After 6 minutes pups were reunited with its dam. Data were analyzed using DeepSqueak. Data were loaded onto DeepSqueak, frequencies between 40-70 kHz were analyzed using the mouse call network V2. Calls were denoised using post hoc denoising network. For syntax analysis, Syntax was classified using Wright K means network. Syntax transition probability charts were generated using DeepSqueak and Matlab. Further USV experiments were performed on P8 pups as previously described (12) with slight modifications.

N1E-115 cells = test: Polymerized vs. soluble tubulin assay; type: cell-based, mouse; conditions: zinc 400 μM, 4 h, peptide 10^−12 M
Procedure: Polymerized vs. soluble tubulin assay—To quantify tubulin polymerization and Tau-MT association, a simple assay was performed as previously described. The cells grown to confluence in six-well plates were washed with MT buffer (80 mM PIPES pH 6.8, 1 mM MgCl^2, 2 mM EGTA, 5% Glycerol) and lysed at room temperature for 5 min through centrifugation (300 g), with 150 μl of MT buffer with 0.5% Triton X-100 to extract soluble (cytosolic) tubulin (S). The pelleted cells were rinsed once again with an equal volume of modified RIPA lysis buffer (50 mM Tris-HCL pH 7.4, 150 mM NaCl, 2 mM EGTA, 1% Triton X-100, 0.1% SDS, 0.1% sodium Deoxycholate) to collect the polymerized (cytoskeletal) tubulin (P). The cytosolic and cytoskeletal fractions were each mixed with sample buffer and heated at 95° C. for 5 min. An equal volume of each fraction was analyzed by immunoblotting with Tau, tubulin and actin antibodies, and the results following ECL development were quantified by densitometry (GelQuant.NET software provided by biochemlabsolutions(dot)com).
It is known that in the presence of extracellular zinc NAP protects MT against degradation by promoting Tau binding to the MT shaft. Polymerized vs. soluble tubulin assay was effected to compare protective activities of NAP and SKIP against MT degradation and Tau-MT dissociation (FIGS. 11F-G). After treatments with zinc (400 μM, 4 h) with and without NAP or SKIP (10^−12 M, 4 h) the cellular-tubulin pool was separated into polymerized and soluble tubulin fractions. The amount of Tau, tubulin, and actin was identified by immunoblotting (FIG. 11F), followed by densitometric quantification (FIG. 11G).

SHANK3 mice = test: Grooming (repetitive behavior); type: in vivo, mouse; conditions: sham-treated vs NAP-treated SHANK3 mice; data not shown
Procedure: Repetitive behavior, a key autistic feature, was also evaluated by measuring grooming frequency and duration.

[3] = test system: SHANK3 mouse model (InsG3680 mutation); test: Social recognition test; type: in vivo; conditions: NAP-treated SHANK3 mouse model
Procedure: To this end, mice with the ASD-linked InsG3680 mutation were used. Two behavioral assessments were performed on make mice: • 1) Open field behavior attesting to anxiety and depression (Open field behavioral assessment technology was previously described, e.g.); and • 2) Social recognition behavior, related to autistic traits (the social recognition test was previously described, e.g..
In the social recognition test, the results measured both time exploring and frequency exploring the mouse or cup, either directly or in the chamber where the mouse or cup only are present (FIG. 13).

Tyr mice [4] = test: Fecal microbiota real-time PCR loads; type: in vivo, mouse; design: key to NAP efficacy: microbiota: corrections by NAP treatment (+)
Procedure: Microbiome—Fecal samples were collected from 12.2±0.19-week-old mice. Samples were prepared and analyzed as previously described (57). Microbiome data was analyzed after applying the logarithmic transformation.

SMILES: CC[C@H](C)[C@H](NC(=O)[C@H](CO)NC(=O)[C@@H](NC(=O)[C@@H]1CCCN1C(=O)[C@H](C)NC(=O)[C@@H](N)CC(N)=O)C(C)C)C(=O)N1CCC[C@H]1C(=O)N[C@@H](CCC(N)=O)C(=O)O [NAP, NAPVSIPQ]
- Difference between effects of NAP and SKIP on EB3 track length and speed ([1]; 10^−12 M, 4 hrs): no significant differences
- Speed and track length of EB3 comets ([1]; cells expressing ADNP p.Glu830synfs*83, 10^−12 M, 4 hrs): significantly augmented
- EB3 comet speed ([1]; cells expressing ADNP p.Lys408Valfs*31, 10^−12 M, 4 hrs): significantly augmented
- EB3 activity (track length and comet speed) ([1]; cells expressing ADNP p.Lys408Valfs*31 SDM, 10^−12 M, 4 hrs): recovered EB3 activity to the control level
- Speed and track length of EB3 comets ([1]; cells expressing ADNP p.Ser404*, 10^−12 M, 4 hrs): significantly augmented
- EB3 comet track length and speed ([1]; cells overexpressing full-length ADNP, 10^−12 M, 4 hrs): did not further influence
- EB3 track length and speed compared to non-treated control ([1]; no ADNP plasmid, 10^−12 M, 4 hrs): increased EB3 track length and speed
- MT activities in the face of all ADNP mutations ([1]; summary of results): normalized MT activities
- Effects on social recognition (preference of the mouse rather than the cup) (BTBR mouse): also observed
- Number of syllables vocalized (Tyr mice [2]; NAP-treated Tyr males, 8 for WT and Tyr): 10
- Syntax complexity (Tyr mice [2]; P8 Tyr pups, both sexes): powerful corrective effect on both sexes; also recorded: significant improvement with NAP treatment
- Total USVs produced (Tyr mice [2]; P8 Tyr pups, females and males): no NAP effects
- NAP efficacy: speech impediments (Tyr mice [2]; Tyr mouse (syntax), first symbol of cell): +/+ (syntax)
- Syntax (Tyr mice [2]; WT pups, data not shown): minor varied impact
- Protection against Tau dissociation from MTs (N1E-115 cells): only NAP exhibited protection
- Protection of polymerized tubulin against zinc-induced decay (N1E-115 cells): protected against zinc-induced decay
- Grooming frequency (SHANK3 mice): higher grooming frequency than did NAP-treated SHANK3 mice
- Social recognition, mouse vs cup exploration [3]: normalization of behavior
- NAP efficacy: microbiota (Tyr mice [4]; Tyr mouse, first symbol of cell): +/+
- EubV3, BIF, Lacto, Entero loads (Tyr mice [4]; WT mice): no effect on WT mice
- Clostridium coccoides group (gCcoc) and Mouse intestinal Bacteroides (MIB) loads (Tyr mice [4]; WT mice, data not shown): other varying effects
- Bifidobacterium genus (BIF) load (Tyr mice [4]; female Tyr mice): NAP correction
- Total eubacterial load (EubV3) (Tyr mice [4]; male Tyr mice): corrected with NAP treatment

Reference: patent US20250032580A1, “USE OF ADNF POLYPEPTIDES IN THERAPY” (RAMOT AT TEL-AVIV UNIVERSITY LTD., priority 2021, published 2025)
